Here are results for 8 compounds from ChEMBL document CHEMBL1641477, “Shp2 protein tyrosine phosphatase inhibitor activity of estramustine phosphate and its triterpenoid analogs” (Bioorg Med Chem Lett, 2011).

pIC50, pKd: −log10 of the molar value.

Test [1] deals with Tyrosine-protein phosphatase non-receptor type 6 (Homo sapiens, UniProt P29350). Briefly: Inhibition of recombinant SHP1.
Test [2] deals with T1, Tyrosine-protein phosphatase non-receptor type 7 (Homo sapiens, UniProt P35236).
T1 sequence (P35236 whole entry): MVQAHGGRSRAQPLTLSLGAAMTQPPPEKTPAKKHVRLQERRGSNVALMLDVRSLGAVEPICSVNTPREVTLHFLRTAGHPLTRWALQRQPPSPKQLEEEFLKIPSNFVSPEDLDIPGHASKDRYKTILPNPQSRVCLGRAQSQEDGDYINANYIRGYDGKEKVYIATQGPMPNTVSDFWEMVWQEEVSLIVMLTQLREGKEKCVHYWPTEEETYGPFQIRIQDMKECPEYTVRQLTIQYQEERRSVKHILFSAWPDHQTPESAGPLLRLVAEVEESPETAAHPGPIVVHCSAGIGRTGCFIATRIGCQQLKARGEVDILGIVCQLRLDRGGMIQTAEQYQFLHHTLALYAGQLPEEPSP
Briefly: Inhibition of recombinant HePTP.

In test [3] the target is T2, Tyrosine-protein phosphatase non-receptor type 1 (Homo sapiens, UniProt P18031).
T2 sequence (P18031 whole entry): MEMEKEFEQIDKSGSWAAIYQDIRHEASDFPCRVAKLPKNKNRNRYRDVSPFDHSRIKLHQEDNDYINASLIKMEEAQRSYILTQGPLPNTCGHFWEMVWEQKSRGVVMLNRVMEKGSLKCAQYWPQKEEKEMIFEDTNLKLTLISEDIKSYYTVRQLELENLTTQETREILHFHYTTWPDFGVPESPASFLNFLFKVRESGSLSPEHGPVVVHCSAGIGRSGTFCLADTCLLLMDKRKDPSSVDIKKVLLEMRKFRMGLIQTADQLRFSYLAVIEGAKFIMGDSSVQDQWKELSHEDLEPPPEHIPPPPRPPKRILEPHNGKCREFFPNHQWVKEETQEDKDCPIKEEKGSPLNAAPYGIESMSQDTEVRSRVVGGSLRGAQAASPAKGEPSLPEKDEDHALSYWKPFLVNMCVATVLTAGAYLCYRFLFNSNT
Briefly: Inhibition of recombinant PTP1B.

Test [4] addresses T3, Tyrosine-protein phosphatase non-receptor type 11 (Homo sapiens, UniProt Q06124).
T3 sequence (Q06124 whole entry): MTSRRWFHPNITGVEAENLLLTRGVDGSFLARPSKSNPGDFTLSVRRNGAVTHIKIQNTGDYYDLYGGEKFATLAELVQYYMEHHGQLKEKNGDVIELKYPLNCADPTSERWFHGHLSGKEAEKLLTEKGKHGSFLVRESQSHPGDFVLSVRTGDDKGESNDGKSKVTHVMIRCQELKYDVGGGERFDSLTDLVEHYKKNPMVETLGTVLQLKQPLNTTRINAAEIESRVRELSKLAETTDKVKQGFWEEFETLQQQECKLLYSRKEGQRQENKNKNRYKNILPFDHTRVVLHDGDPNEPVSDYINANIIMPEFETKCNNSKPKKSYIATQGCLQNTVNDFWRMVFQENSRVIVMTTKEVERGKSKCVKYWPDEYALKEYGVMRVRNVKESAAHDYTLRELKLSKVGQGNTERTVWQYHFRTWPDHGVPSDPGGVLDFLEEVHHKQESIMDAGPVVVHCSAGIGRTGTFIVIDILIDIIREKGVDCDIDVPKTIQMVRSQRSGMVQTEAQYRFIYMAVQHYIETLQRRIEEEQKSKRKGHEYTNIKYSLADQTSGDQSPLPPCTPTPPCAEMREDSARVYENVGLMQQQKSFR
Put plainly: Inhibition of recombinant SHP2.

Test [5] addresses T4, Tyrosine-protein phosphatase non-receptor type 11 (Homo sapiens) (UniProt Q06124).
T4 sequence (whole entry): T3 sequence (Q06124 whole entry)
Description: Mixed inhibition of recombinant SHP2 at enzyme-substrate complex by Lineweaver-Burk plot analysis

Test [6] addresses T4, Tyrosine-protein phosphatase non-receptor type 11 (Homo sapiens). The source holds these as a separate data set.
Description: Mixed inhibition of recombinant SHP2 by Lineweaver-Burk plot analysis
Test [7] deals with T3, Tyrosine-protein phosphatase non-receptor type 11. Briefly: Binding affinity to recombinant SHP2 by surface plasmon […].

Tyrosine-protein phosphatase non-receptor type 6, sequence (P29350 whole entry): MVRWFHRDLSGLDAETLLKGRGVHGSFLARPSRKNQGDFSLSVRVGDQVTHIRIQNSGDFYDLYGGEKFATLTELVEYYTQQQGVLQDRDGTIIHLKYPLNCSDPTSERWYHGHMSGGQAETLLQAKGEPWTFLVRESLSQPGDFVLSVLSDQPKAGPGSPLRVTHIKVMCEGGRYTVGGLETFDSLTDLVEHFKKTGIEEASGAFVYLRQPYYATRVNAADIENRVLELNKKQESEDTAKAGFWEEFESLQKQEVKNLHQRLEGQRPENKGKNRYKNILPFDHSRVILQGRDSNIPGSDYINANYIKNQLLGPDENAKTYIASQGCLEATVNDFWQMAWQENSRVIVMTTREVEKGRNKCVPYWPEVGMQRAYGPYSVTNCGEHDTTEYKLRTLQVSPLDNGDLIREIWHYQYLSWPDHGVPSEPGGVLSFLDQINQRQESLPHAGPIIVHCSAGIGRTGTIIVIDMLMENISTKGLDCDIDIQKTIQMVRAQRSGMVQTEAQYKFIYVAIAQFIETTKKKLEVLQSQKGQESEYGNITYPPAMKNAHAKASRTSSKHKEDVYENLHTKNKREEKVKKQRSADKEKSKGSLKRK

Regarding `C[C@]12CC[C@@H]3c4ccc(O)cc4CC[C@H]3[C@@H]1CC[C@@H]2OP(=O)(O)O` [ESTRADIOL PHOSPHATE], the pIC50 was under 3.52 in test [1], under 3.52 in test [2], under 3.52 in test [3] and 4.70 in test [4].
On to `C[C@]12CC[C@@H]3c4ccc(OC(=O)N(CCCl)CCCl)cc4CC[C@H]3[C@@H]1CC[C@@H]2O` [ESTRAMUSTINE], for which the pIC50 in test [4] is under 3.52.
With `CC1=C(O)C(=O)C=C2C1=CC=C1[C@@]2(C)CC[C@@]2(C)[C@@H]3C[C@](C)(C(=O)O)CC[C@]3(C)CC[C@]12C` [CELASTROL], the pIC50 is 4.56 in test [1], 4.12 in test [2], 4.88 in test [3] and 5.48 in test [4].
With `CC1=C(O)C(=O)C=C2C1=CC=C1[C@@]2(C)CC[C@@]2(C)[C@@H]3C[C@@H](C)C(=O)C[C@]3(C)CC[C@]12C` [TINGENONE], the pIC50 in test [4] was 4.21.
`COc1ccc2c(c1)CC[C@@H]1[C@@H]2CC[C@@]2(C)[C@H]1CC[C@@]21CCNP(=O)(N(CCCl)CCCl)O1` (some centres not stated): the pIC50 in test [4] is under 3.52.
Consider `CC1(C)[C@@H](O)CC[C@]2(C)[C@H]3C(=O)C=C4[C@@H]5C[C@@](C)(C(=O)O)CC[C@]5(C)CC[C@@]4(C)[C@]3(C)CC[C@@H]12` [ENOXOLONE], for which the values for the pIC50 in test [1], in test [2] and in test [4] were 4.18, under 3.52 and 5.02, respectively.
Regarding `C[C@]12CC[C@@H]3c4ccc(OC(=O)N(CCCl)CCCl)cc4CC[C@H]3[C@@H]1CC[C@@H]2OP(=O)(O)O` [ESTRAMUSTINE PHOSPHATE], the pIC50 in test [1] is 4.39; in test [2], 3.82; in test [3], 4.20; in test [4] it was 4.77. This compound registered a Kis in test [5] of 22.8 µM. The same compound had a Kii in test [6] of 10.8 µM. Also, the pKd in test [7] was 5.08.
In the case of `C[C@]12CC[C@@H]3c4ccc(O)cc4CC[C@H]3[C@@H]1CC[C@@H]2O` [ESTRADIOL], the pIC50 in test [4] is under 3.52.
